Laboratory results as given in the supplement of paper PMC8882468.

These molecules were tested on HCI-008 (organoid from a HER2-enriched breast cancer xenograft) (assay: CTG-3D luminescence at 96 h relative to day-0 seeding control (ratio to day 0); higher = more growth / less cytotoxicity; PDxO 3D drug screen (set 2), 96 h, CTG-3D normalised to day-0 seeding control.). Conditions: 0.00025 µM; days in culture: 382.
`CC(C)n1nc(-c2ccc3oc(N)nc3c2)c2c(N)ncnc21` [sapanisertib] was tested, and the “CTG-3D luminescence at 96 h” value was 1.93.
`C[C@@H](Nc1cc(F)cc(F)c1)c1cc(C(=O)N(C)C)cc2c(=O)cc(N3CCOCC3)oc12` [AZD-8186] was tested, and the “CTG-3D luminescence at 96 h” value was 1.86.
With `CC(=O)c1c(C)c2cnc(Nc3ccc(N4CCNCC4)cn3)nc2n(C2CCCC2)c1=O` [palbociclib] the “CTG-3D luminescence at 96 h” value was 1.31.
In the case of `Cc1c(CN2CCN(C(=O)[C@H](C)O)CC2)sc2c(N3CCOCC3)nc(-c3cnc(N)nc3)nc12` [apitolisib], the “CTG-3D luminescence at 96 h” value is reported as 1.72.
`CS(=O)(=O)CCNCc1ccc(-c2ccc3ncnc(Nc4ccc(OCc5cccc(F)c5)c(Cl)c4)c3c2)o1` [lapatinib] was tested, and the “CTG-3D luminescence at 96 h” value was 1.47.
In the case of `CCOc1ccn(-c2ccc(F)cc2)c(=O)c1C(=O)Nc1ccc(Oc2ccnc(N)c2Cl)c(F)c1` [ASLAN002], the “CTG-3D luminescence at 96 h” value is reported as 1.54.
With `Nc1cc(C(F)(F)F)c(-c2cc(N3CCOCC3)nc(N3CCOCC3)n2)cn1` [buparlisib] the “CTG-3D luminescence at 96 h” value was 1.82.

Same assay, conditions: 0.005 µM; days in culture: 325
With `CC(C)n1nc(-c2ccc3oc(N)nc3c2)c2c(N)ncnc21` [sapanisertib] the “CTG-3D luminescence at 96 h” value was 1.64.
For `C[C@@H](Nc1cc(F)cc(F)c1)c1cc(C(=O)N(C)C)cc2c(=O)cc(N3CCOCC3)oc12` [AZD-8186], the “CTG-3D luminescence at 96 h” value was 1.7.
`CC(=O)c1c(C)c2cnc(Nc3ccc(N4CCNCC4)cn3)nc2n(C2CCCC2)c1=O` [palbociclib] was tested, and the “CTG-3D luminescence at 96 h” value was 2.03.
`Cc1c(CN2CCN(C(=O)[C@H](C)O)CC2)sc2c(N3CCOCC3)nc(-c3cnc(N)nc3)nc12` [apitolisib] was tested, and the “CTG-3D luminescence at 96 h” value was 1.65.
`CS(=O)(=O)CCNCc1ccc(-c2ccc3ncnc(Nc4ccc(OCc5cccc(F)c5)c(Cl)c4)c3c2)o1` [lapatinib] was tested, and the “CTG-3D luminescence at 96 h” value was 1.73.
For `CCOc1ccn(-c2ccc(F)cc2)c(=O)c1C(=O)Nc1ccc(Oc2ccnc(N)c2Cl)c(F)c1` [ASLAN002], the “CTG-3D luminescence at 96 h” value was 2.46.
`Nc1cc(C(F)(F)F)c(-c2cc(N3CCOCC3)nc(N3CCOCC3)n2)cn1` [buparlisib] was tested, and the “CTG-3D luminescence at 96 h” value was 2.4.

Same assay, conditions: 0.005 µM; days in culture: 340
With `CC(C)n1nc(-c2ccc3oc(N)nc3c2)c2c(N)ncnc21` [sapanisertib] the “CTG-3D luminescence at 96 h” value was 1.51.
For `C[C@@H](Nc1cc(F)cc(F)c1)c1cc(C(=O)N(C)C)cc2c(=O)cc(N3CCOCC3)oc12` [AZD-8186], the “CTG-3D luminescence at 96 h” value was 1.8.
For `CC(=O)c1c(C)c2cnc(Nc3ccc(N4CCNCC4)cn3)nc2n(C2CCCC2)c1=O` [palbociclib], the “CTG-3D luminescence at 96 h” value was 1.76.
In the case of `Cc1c(CN2CCN(C(=O)[C@H](C)O)CC2)sc2c(N3CCOCC3)nc(-c3cnc(N)nc3)nc12` [apitolisib], the “CTG-3D luminescence at 96 h” value is reported as 1.5.
With `CS(=O)(=O)CCNCc1ccc(-c2ccc3ncnc(Nc4ccc(OCc5cccc(F)c5)c(Cl)c4)c3c2)o1` [lapatinib] the “CTG-3D luminescence at 96 h” value was 1.96.
In the case of `CCOc1ccn(-c2ccc(F)cc2)c(=O)c1C(=O)Nc1ccc(Oc2ccnc(N)c2Cl)c(F)c1` [ASLAN002], the “CTG-3D luminescence at 96 h” value is reported as 1.52.
`Nc1cc(C(F)(F)F)c(-c2cc(N3CCOCC3)nc(N3CCOCC3)n2)cn1` [buparlisib] was tested, and the “CTG-3D luminescence at 96 h” value was 1.94.

Same assay, conditions: 0.005 µM; days in culture: 354
For `CC(C)n1nc(-c2ccc3oc(N)nc3c2)c2c(N)ncnc21` [sapanisertib], the “CTG-3D luminescence at 96 h” value was 2.84.
For `C[C@@H](Nc1cc(F)cc(F)c1)c1cc(C(=O)N(C)C)cc2c(=O)cc(N3CCOCC3)oc12` [AZD-8186], the “CTG-3D luminescence at 96 h” value was 1.82.
For `CC(=O)c1c(C)c2cnc(Nc3ccc(N4CCNCC4)cn3)nc2n(C2CCCC2)c1=O` [palbociclib], the “CTG-3D luminescence at 96 h” value was 2.34.
With `Cc1c(CN2CCN(C(=O)[C@H](C)O)CC2)sc2c(N3CCOCC3)nc(-c3cnc(N)nc3)nc12` [apitolisib] the “CTG-3D luminescence at 96 h” value was 2.04.
`CS(=O)(=O)CCNCc1ccc(-c2ccc3ncnc(Nc4ccc(OCc5cccc(F)c5)c(Cl)c4)c3c2)o1` [lapatinib] was tested, and the “CTG-3D luminescence at 96 h” value was 2.27.
`CCOc1ccn(-c2ccc(F)cc2)c(=O)c1C(=O)Nc1ccc(Oc2ccnc(N)c2Cl)c(F)c1` [ASLAN002] was tested, and the “CTG-3D luminescence at 96 h” value was 2.81.
With `Nc1cc(C(F)(F)F)c(-c2cc(N3CCOCC3)nc(N3CCOCC3)n2)cn1` [buparlisib] the “CTG-3D luminescence at 96 h” value was 2.59.

Same assay, conditions: 0.005 µM; days in culture: 382
In the case of `CC(C)n1nc(-c2ccc3oc(N)nc3c2)c2c(N)ncnc21` [sapanisertib], the “CTG-3D luminescence at 96 h” value is reported as 1.22.
`C[C@@H](Nc1cc(F)cc(F)c1)c1cc(C(=O)N(C)C)cc2c(=O)cc(N3CCOCC3)oc12` [AZD-8186] was tested, and the “CTG-3D luminescence at 96 h” value was 1.54.
`CC(=O)c1c(C)c2cnc(Nc3ccc(N4CCNCC4)cn3)nc2n(C2CCCC2)c1=O` [palbociclib] was tested, and the “CTG-3D luminescence at 96 h” value was 1.55.
For `Cc1c(CN2CCN(C(=O)[C@H](C)O)CC2)sc2c(N3CCOCC3)nc(-c3cnc(N)nc3)nc12` [apitolisib], the “CTG-3D luminescence at 96 h” value was 0.949.
For `CS(=O)(=O)CCNCc1ccc(-c2ccc3ncnc(Nc4ccc(OCc5cccc(F)c5)c(Cl)c4)c3c2)o1` [lapatinib], the “CTG-3D luminescence at 96 h” value was 1.81.
For `CCOc1ccn(-c2ccc(F)cc2)c(=O)c1C(=O)Nc1ccc(Oc2ccnc(N)c2Cl)c(F)c1` [ASLAN002], the “CTG-3D luminescence at 96 h” value was 1.29.
In the case of `Nc1cc(C(F)(F)F)c(-c2cc(N3CCOCC3)nc(N3CCOCC3)n2)cn1` [buparlisib], the “CTG-3D luminescence at 96 h” value is reported as 1.45.

Same assay, conditions: 0.1 µM; days in culture: 325
With `CC(C)n1nc(-c2ccc3oc(N)nc3c2)c2c(N)ncnc21` [sapanisertib] the “CTG-3D luminescence at 96 h” value was 0.99.
With `C[C@@H](Nc1cc(F)cc(F)c1)c1cc(C(=O)N(C)C)cc2c(=O)cc(N3CCOCC3)oc12` [AZD-8186] the “CTG-3D luminescence at 96 h” value was 3.47.
With `CC(=O)c1c(C)c2cnc(Nc3ccc(N4CCNCC4)cn3)nc2n(C2CCCC2)c1=O` [palbociclib] the “CTG-3D luminescence at 96 h” value was 2.74.
`Cc1c(CN2CCN(C(=O)[C@H](C)O)CC2)sc2c(N3CCOCC3)nc(-c3cnc(N)nc3)nc12` [apitolisib] was tested, and the “CTG-3D luminescence at 96 h” value was 1.78.
`CS(=O)(=O)CCNCc1ccc(-c2ccc3ncnc(Nc4ccc(OCc5cccc(F)c5)c(Cl)c4)c3c2)o1` [lapatinib] was tested, and the “CTG-3D luminescence at 96 h” value was 3.2.
In the case of `CCOc1ccn(-c2ccc(F)cc2)c(=O)c1C(=O)Nc1ccc(Oc2ccnc(N)c2Cl)c(F)c1` [ASLAN002], the “CTG-3D luminescence at 96 h” value is reported as 3.53.
In the case of `Nc1cc(C(F)(F)F)c(-c2cc(N3CCOCC3)nc(N3CCOCC3)n2)cn1` [buparlisib], the “CTG-3D luminescence at 96 h” value is reported as 2.51.

Same assay, conditions: 0.1 µM; days in culture: 340
In the case of `CC(C)n1nc(-c2ccc3oc(N)nc3c2)c2c(N)ncnc21` [sapanisertib], the “CTG-3D luminescence at 96 h” value is reported as 0.592.
In the case of `C[C@@H](Nc1cc(F)cc(F)c1)c1cc(C(=O)N(C)C)cc2c(=O)cc(N3CCOCC3)oc12` [AZD-8186], the “CTG-3D luminescence at 96 h” value is reported as 1.21.
`CC(=O)c1c(C)c2cnc(Nc3ccc(N4CCNCC4)cn3)nc2n(C2CCCC2)c1=O` [palbociclib] was tested, and the “CTG-3D luminescence at 96 h” value was 2.01.
With `Cc1c(CN2CCN(C(=O)[C@H](C)O)CC2)sc2c(N3CCOCC3)nc(-c3cnc(N)nc3)nc12` [apitolisib] the “CTG-3D luminescence at 96 h” value was 0.702.
With `CS(=O)(=O)CCNCc1ccc(-c2ccc3ncnc(Nc4ccc(OCc5cccc(F)c5)c(Cl)c4)c3c2)o1` [lapatinib] the “CTG-3D luminescence at 96 h” value was 1.35.
With `CCOc1ccn(-c2ccc(F)cc2)c(=O)c1C(=O)Nc1ccc(Oc2ccnc(N)c2Cl)c(F)c1` [ASLAN002] the “CTG-3D luminescence at 96 h” value was 1.76.
With `Nc1cc(C(F)(F)F)c(-c2cc(N3CCOCC3)nc(N3CCOCC3)n2)cn1` [buparlisib] the “CTG-3D luminescence at 96 h” value was 1.55.

Same assay, conditions: 0.1 µM; days in culture: 354
For `CC(C)n1nc(-c2ccc3oc(N)nc3c2)c2c(N)ncnc21` [sapanisertib], the “CTG-3D luminescence at 96 h” value was 0.615.
In the case of `C[C@@H](Nc1cc(F)cc(F)c1)c1cc(C(=O)N(C)C)cc2c(=O)cc(N3CCOCC3)oc12` [AZD-8186], the “CTG-3D luminescence at 96 h” value is reported as 1.24.
`CC(=O)c1c(C)c2cnc(Nc3ccc(N4CCNCC4)cn3)nc2n(C2CCCC2)c1=O` [palbociclib] was tested, and the “CTG-3D luminescence at 96 h” value was 1.
`Cc1c(CN2CCN(C(=O)[C@H](C)O)CC2)sc2c(N3CCOCC3)nc(-c3cnc(N)nc3)nc12` [apitolisib] was tested, and the “CTG-3D luminescence at 96 h” value was 1.34.
In the case of `CS(=O)(=O)CCNCc1ccc(-c2ccc3ncnc(Nc4ccc(OCc5cccc(F)c5)c(Cl)c4)c3c2)o1` [lapatinib], the “CTG-3D luminescence at 96 h” value is reported as 1.42.
In the case of `CCOc1ccn(-c2ccc(F)cc2)c(=O)c1C(=O)Nc1ccc(Oc2ccnc(N)c2Cl)c(F)c1` [ASLAN002], the “CTG-3D luminescence at 96 h” value is reported as 1.45.
